# Activity calls are given as the source filed them. The rule behind the calls is not given here.
# How the values were obtained:
# SK-OV-3 = experiment: Cytotoxicity against human SKOV3 cells after 48 hrs by sulforhodamine B assay; type: functional; details: SK-OV-3, 48 h, read-out: ED50 (the source's name)
# A549 = experiment: Cytotoxicity against human A549 cells after 48 hrs by sulforhodamine B assay; type: functional; details: A549, 48 h, read-out: ED50 (the source's name)
# SK-MEL-2 = experiment: Cytotoxicity against human SK-MEL-2 cells after 48 hrs by sulforhodamine B assay; type: functional; details: SK-MEL-2, 48 h, read-out: ED50 (the source's name)
# HCT-15 = experiment: Cytotoxicity against human HCT15 cells after 48 hrs by sulforhodamine B assay; type: functional; details: HCT-15, 48 h, read-out: ED50 (the source's name)
# XF498 = experiment: Cytotoxicity against human XF498 cells after 48 hrs by sulforhodamine B assay; type: functional; details: XF498, 48 h, read-out: ED50 (the source's name)
# Escherichia coli [1] = experiment: Antibacterial activity against […] resistant Escherichia coli TEM at 100 ug/ml after 18 hrs by serial dilution; type: functional, organism-based
# Streptococcus pyogenes [2] = experiment: Antibacterial activity against […] resistant Streptococcus pyogenes 77A at 100 ug/ml after 18 hrs by serial dilution; type: functional, organism-based
# Enterococcus faecium = experiment: Antibacterial activity against […] resistant Streptococcus faecium MD 8b at 100 ug/ml after 18 hrs by serial dilution; type: functional, organism-based
# RAW264.7 [3] = experiment: Antiinflammatory activity in mouse RAW264.7 cells assessed as inhibition of NO production at 100 ug/ml; type: functional, cell-based
# Escherichia coli [4] = experiment: Antibacterial activity against […] resistant Escherichia coli 078 at 100 ug/ml after 18 hrs by serial dilution; type: functional, organism-based
# Pseudomonas aeruginosa [5] = experiment: Antibacterial activity against […] resistant Pseudomonas aeruginosa 1592E at 100 ug/ml after 18 hrs by serial dilution; type: functional, organism-based
# Streptococcus pyogenes [6] = experiment: Antibacterial activity against […] resistant Streptococcus pyogenes 308A at 100 ug/ml after 18 hrs by serial dilution; type: functional, organism-based
# RAW264.7 [7] = experiment: Antiinflammatory activity in mouse RAW264.7 cells assessed as inhibition of TNFalpha production at 100 ug/ml; type: functional, cell-based
# Pseudomonas aeruginosa [8] = experiment: Antibacterial activity against […] resistant Pseudomonas aeruginosa 1771 at 100 ug/ml after 18 hrs by serial dilution; type: functional, organism-based
# Enterobacter cloacae [9] = experiment: Antibacterial activity against […] resistant Enterobacter cloacae P 99 at 100 ug/ml after 18 hrs by serial dilution; type: functional, organism-based
# Klebsiella aerogenes = experiment: Antibacterial activity against […] resistant Klebsiella aerogenes 1522E at 100 ug/ml after 18 hrs by serial dilution; type: functional, organism-based
# Escherichia coli [10] = experiment: Antibacterial activity against […] resistant Escherichia coli DC 0 at 100 ug/ml after 18 hrs by serial dilution; type: functional, organism-based
# Salmonella enterica = experiment: Antibacterial activity against […] resistant Salmonella Typhimurium at 100 ug/ml after 18 hrs by serial dilution; type: functional, organism-based; details: Salmonella enterica subsp. enterica serovar Typhimurium
# Staphylococcus aureus [11] = experiment: Antibacterial activity against […] resistant Staphylococcus aureus SG 511 at 100 ug/ml after 18 hrs by serial dilution; type: functional, organism-based
# RAW264.7 [12] = experiment: Antiinflammatory activity in mouse RAW264.7 cells assessed as inhibition of IL-6 production at 100 ug/ml; type: functional, cell-based
# Pseudomonas aeruginosa [13] = experiment: Antibacterial activity against […] resistant Pseudomonas aeruginosa 1771M at 100 ug/ml after 18 hrs by serial dilution; type: functional, organism-based
# Staphylococcus aureus [14] = experiment: Antibacterial activity against methicillin resistant Staphylococcus aureus 285 at 100 ug/ml after 18 hrs by serial dilution; type: functional, organism-based
# Enterobacter cloacae [15] = experiment: Antibacterial activity against […] resistant Enterobacter cloacae 1321E at 100 ug/ml after 18 hrs by serial dilution; type: functional, organism-based
# Staphylococcus aureus [16] = experiment: Antibacterial activity against methicillin resistant Staphylococcus aureus 503 at 100 ug/ml after 18 hrs by serial dilution; type: functional, organism-based
# Escherichia coli [17] = experiment: Antibacterial activity against […] resistant Escherichia coli 1507E at 100 ug/ml after 18 hrs by serial dilution; type: functional, organism-based
# Escherichia coli [18] = experiment: Antibacterial activity against […] resistant Escherichia coli DC 2 at 100 ug/ml after 18 hrs by serial dilution; type: functional, organism-based
# Klebsiella oxytoca = experiment: Antibacterial activity against […] resistant Klebsiella oxytoca 1082E at 100 ug/ml after 18 hrs by serial dilution; type: functional, organism-based
# Pseudomonas aeruginosa [19] = experiment: Antibacterial activity against […] resistant Pseudomonas aeruginosa 9027 at 100 ug/ml after 18 hrs by serial dilution; type: functional, organism-based
compound,measurement,setting,value
COC(=O)/C=C/C=C/[C@@H]1[C@@H]2CCC[C@H]2C=C[C@H]1/C=C/C=C/CCCC(=O)NCCC(=O)NCCc1c[nH]c2ccccc12 [APLIDIC ACID AMIDE A],EC50,SK-OV-3,17.2 µg/mL
same,EC50,A549,17.5 µg/mL
same,EC50,SK-MEL-2,11.7 µg/mL
same,EC50,HCT-15,13.5 µg/mL
same,EC50,XF498,15.6 µg/mL
COC(=O)/C=C/C=C/[C@@H]1[C@@H]2CCC[C@H]2C=C[C@H]1/C=C/C=C/CCCC(=O)O [APLIDIC ACID A],EC50,SK-OV-3,15.2 µg/mL
same,Activity,Escherichia coli [1],inactive
same,Activity,Streptococcus pyogenes [2],inactive
same,EC50,A549,25.2 µg/mL
same,Activity,Enterococcus faecium,inactive
same,Activity,RAW264.7 [3],inactive
same,Activity,Escherichia coli [4],inactive
same,Activity,Pseudomonas aeruginosa [5],inactive
same,Activity,Streptococcus pyogenes [6],inactive
same,Activity,RAW264.7 [7],inactive
same,Activity,Pseudomonas aeruginosa [8],inactive
same,Activity,Enterobacter cloacae [9],inactive
same,Activity,Klebsiella aerogenes,inactive
same,Activity,Escherichia coli [10],inactive
same,Activity,Salmonella enterica,inactive
same,Activity,Staphylococcus aureus [11],inactive
same,EC50,SK-MEL-2,11.6 µg/mL
same,Activity,RAW264.7 [12],inactive
same,Activity,Pseudomonas aeruginosa [13],inactive
same,Activity,Staphylococcus aureus [14],inactive
same,Activity,Enterobacter cloacae [15],inactive
same,Activity,Staphylococcus aureus [16],inactive
same,EC50,HCT-15,12.4 µg/mL
same,Activity,Escherichia coli [17],inactive
same,Activity,Escherichia coli [18],inactive
same,Activity,Klebsiella oxytoca,inactive
same,Activity,Pseudomonas aeruginosa [19],inactive
same,EC50,XF498,19.5 µg/mL
O=C(O)CCC/C=C/C=C/[C@@H]1C=C[C@@H]2CCC[C@H]2[C@H]1/C=C/C=C/C(=O)NCCc1ccccc1 [APLIDIC ACID B],EC50,SK-OV-3,13.5 µg/mL
same,EC50,A549,28.4 µg/mL
same,EC50,SK-MEL-2,11.4 µg/mL
same,EC50,HCT-15,13.5 µg/mL
same,EC50,XF498,21.6 µg/mL
O=C(O)CCC/C=C/[C@@H]1C=C[C@@H]2CCC[C@H]2[C@H]1/C=C/C=C/C(=O)NCCc1ccccc1 [APLIDIC ACID C],EC50,SK-OV-3,14.7 µg/mL
same,EC50,A549,12.3 µg/mL
same,EC50,SK-MEL-2,14.5 µg/mL
same,EC50,HCT-15,12 µg/mL
same,EC50,XF498,14 µg/mL
COc1cccc2c1C(=O)c1c(O)c3c(c(O)c1C2=O)C[C@@](O)(C(=O)CO)C[C@@H]3O[C@H]1C[C@H](N)[C@H](O)[C@H](C)O1 [DOXORUBICIN],EC50,SK-OV-3,0.003 µg/mL
same,EC50,A549,0.001 µg/mL
same,EC50,SK-MEL-2,0.001 µg/mL
same,EC50,HCT-15,0.071 µg/mL
same,EC50,XF498,0.029 µg/mL
